Entries after “also recorded” stand apart in the source; their conditions may differ.
Key:
A. thaliana [1] = experiment: Combined treatment of Phe-analogues and glyphosate, A. thaliana root growth / seed-germination; type: in vivo, Arabidopsis thaliana
Protocol: FIG. 9 is an image depicting the effects of Phe-analogs, glyphosate and combination thereof on Arabidopsis thaliana (var. Columbia) seed-germination and seedlings establishment. “ZYX1”=m-Tyr (3′ OH phenylalanine); “ZYX2”=3′ fluoro phenylalanine; “RoundUp”=Glyphosate; “uM”=μicromolar.
For example, when inhibition of weed growth (e.g., A. thaliana) is achieved using an amount of 100 μM of glyphosate (based on TAIR database) when used in the absence of the effective amount of the compound depicted by Formula A, I or II, the concentration of glyphosate required for achieving the same growth inhibition of the weed in the presence of the effective amount of the compound depicted by Formula A, I or II is 10 μM of glyphosate, i.e., a reduction of about 90% in the concentration of glyphosate (e.g., using the ZYX1 compound as shown in FIG. 9).
Compared to herbicides (e.g., glyphosate) applied alone, the performance of herbicide mixtures can be either synergistic, or additive. Additivity is the combined action, which is equal to the total response predicted by taking into account the response of each herbicide applied alone. Synergism is the combined action of two herbicides where the observed response to their joint application is greater than the response predicted by Colby method [S. R. COLBY. Calculating Synergistic and Antagonistic Responses of Herbicide Combinations. […]

A. thaliana [2] = settings: absence of Formula A, I or II compound; based on TAIR database; cited from earlier work
[3] = tested on: glyphosate resistant Lolium rigidum Gaudin; experiment: Combined treatment on glyphosate resistant weed, seed-germination and seedlings establishment; type: in vivo
Description: FIG. 10 is an image depicting the effects of Phe-analogs, on glyphosate resistant Lolium rigidum Gaudin (weed) seed-germination and seedlings establishment. ZYX1=m-Tyr; “RoundUp”=Glyphosate; “uM”=μicromolar.
In recent years, Lolium rigidum Gaudin (annual ryegrass) resistance to a number of herbicides has started to spread worldwide.

[4] = tested on: Arabidopsis thaliana (var. Columbia); experiment: Arabidopsis seed-germination and seedlings establishment on MS medium with Phe-analogues; type: in vivo; settings: for appearance of treated seedlings (cotyledons, leaves): seedlings on MS medium with analogue; for effect on seed-germination: seeds sown on MS medium with 0-80 μM analogue
Description: FIGS. 2A-D are images depicting the effects of m-Tyr and several other phenylalanine (Phe)-analogs, modified in the meta position of the R-group, on Arabidopsis thaliana (var. Columbia) seed-germination and seedlings establishment. FIG. 2A—m-Tyr; FIG. 2B—Phe-analog “CH3”; FIG. 2C—Phe-analog “F”; FIG. 2D—Phe-analog “CF3”.
The germination of Arabidopsis thaliana plants is inhibited by the Phe-analogues of some embodiments of the invention—The efficiency of the developed compounds modified at the ‘meta’ position of the phenyl ring (FIG. 1) were analysed on Arabidopsis thaliana (var. Columbia). Following […] for 5 days at 4° C., Arabidopsis seeds were sown on Murashige-Skoog medium (MS) supplemented with increased concentrations (0-80 μM) of different Phe-analogues (in which “Y” was either “CH3”, “F” or “CF3”; see, FIG. 1). […] It should be noted that many more phe-analogues can be easily synthesized chemically based on the present teachings.

[5] = tested on: Arabidopsis thaliana (var. Columbia); settings: Bertin et al. 2007; cited from earlier work
Microcystis aeruginosa = experiment: Lake Kinneret water samples containing toxic cyanobacteria, bleaching and growth (OD=730); type: cell-based
Protocol: (§1) FIGS. 5A-E depict the effect of m-Tyr on killing cyanobacteria Microcystis aeruginosa (FIGS. 5A-B) and Synechocystis PCC 6803 (FIGS. 5C-E) from water samples. FIG. 5A is a graph depicting the effects of m-Tyr on lake Kinneret samples containing the highly toxic cyanobacteria, Microcystis aeruginosa. […] The growth rate was determined by the culture absorbance at OD=730. FIG. 5B—raw data of the water samples used in the experiment shown in FIG. 5A, in the presence of the indicated concentrations of m-Tyr. FIG. 5C—a graph depicting the effects of m-Tyr on the cyanobacteria, Synechocystis PCC 6803. The tests were performed with samples of Synechocystis PCC 6803, in the absence (0) or presence of various m-Tyr concentrations (1-1000 μM) as indicated. […] The growth rate was determined by the culture absorbance at OD=730. FIG. 5D—raw data of the water samples used in the experiment shown in FIG. 5C, in the presence of the indicated concentrations of m-Tyr. FIG. 5E—The cell mortality of the cyanobacteria Synechocystis PCC 6803 was evaluated by the numbers of colonies appearing on Agar plates.

cyanobacteria = experiment: Viability experiments / toxicity to cyanobacteria; type: cell-based
Description: (§2) Thus, m-Tyr and its related Phe-analogues represent the first selective agents against cyanoblooming, a serious threat to both marine ecology and global economy.

Bacillus subtilis = experiment: Antibacterial assay, bacterial growth by optical density (OD=600 nm); type: cell-based; settings: 0-1000 μM
Protocol: (§3) FIGS. 6A-B depict the effects of m-Tyr on the growth rates of model gram-positive and gram-negative bacteria. Bacterial growth was determined using optical density data (OD=600 nm) of E. coli and B. subtilis cultures at different time points and at different m-Tyr concentrations (0-1000 μM, the color index for m-Tyr concentration used is in the right side of each panel). FIG. 6A—E. coli; FIG. 6B—Bacillus subtilis; Note that cell growth of E. coli and Bacillus subtilis was not affected by m-Tyr, even when used at high concentrations of 1000 micromolar.

E. coli = experiment: as above; type: cell-based, Escherichia coli; settings: 0-1000 μM
Protocol: as §3

yeast = experiment: Sensitivity of yeast cultures; type: cell-based; settings: even at concentrations as high as 15 mM; data not shown
[6] = Movellan et al. 2014; cited from earlier work
Synechocystis PCC 6803 = experiment: Growth inhibition / bleaching of cyanobacteria culture (absorbance OD=730, colonies on agar); type: cell-based; settings: for effect on growth / killing of the cyanobacteria: water samples, OD=730
Protocol: FIGS. 3A-B depict the inhibition of cyanobacteria by the phenylalanine analogue of some embodiments of the invention (“F”). FIG. 3A—a graph depicting the inhibition of growth of cyanobacteria Synechocystis PCC 6803 by increasing concentrations of the phenylalanine analogue of some embodiments of the invention. FIG. 3B—raw data of the results shown in FIG. 3A as detected after 150 hours.
as §1, with “aeruginosa. The tests were performed with samples collected from lake Kinneret, that are contaminated by its native toxic cyanobacteria Microcystis aeruginosa, in the absence (0) or presence of various m-Tyr concentrations (1-20 μM) as indicated.” for “aeruginosa.”

algae (chlamydomonas) = experiment: Inhibition of algae; type: cell-based; settings: even in the millimolar range
marine bacteria = experiment: Effect on marine bacteria; type: cell-based
Description: as §2

algae (Chlorella) = experiment: Effect on algae; type: cell-based
Description: as §2

[7] = type: physicochemical
Description: Although m-Tyr is an efficient allelopathic agent, its direct application for agriculture use is limited due to its instability in soil and aqueous environment [Movellan, J. et al. Synthesis and evaluation as biodegradable herbicides of halogenated analogs of L-meta-tyrosine. Environ. Sci. Pollut. Res. 21, 4861-4870 (2014)].

In the case of `O=C(O)CNCP(=O)(O)O` [glyphosate], the “concentration of glyphosate required for the same growth inhibition in combination” value (A. thaliana [1]; in the presence of the effective amount of the compound (ZYX1, FIG. 9)) is given as 10 µM, the “amount of glyphosate achieving inhibition of weed growth, used alone” value (A. thaliana [2]) is given as 100 µM and the “response of glyphosate resistant Lolium, applied separately” value ([3]; FIG. 10) is given as “resistance”. The “elevated glyphosate concentration to which the Lolium variety is resistant” value ([3]; local Israeli variety of Lolium) was 60 folds of the recommended concentration.

For `N[C@@H](Cc1cccc(O)c1)C(=O)O` [m-Tyr, 3-hydroxyphenylalanine], the “appearance of treated seedlings (cotyledons, leaves)” value [4] was “white cotyledons and yellowish leaves”, the “chloroplast morphology, microscopic analysis” value ([4]; seedlings treated with 10 μM, data not shown) was “altered chloroplast morphologies and less grana lamella” and the effect on seed-germination [4] was “strongly affected”. For the same compound, the “phytotoxic activity (inhibition of germination of angiosperms, root growth)” value [5] was “promising phytotoxic activity”, the “effect on growth / killing of the cyanobacteria” value (from here on “effect on growth / killing”) (Microcystis aeruginosa; OD=730) was “very strong effect” and the “effect on growth / killing” value (Microcystis aeruginosa; OD=730, listed as meta tyrosine) was “effective”. For the same compound, the “bleaching of the cyanobacteria culture” value (Microcystis aeruginosa; increasing concentrations (printed 0 mM to 10 mM)) was “bleaching of the culture”, the “reduction in the concentration of glyphosate” value (A. thaliana [1]; combination of ZYX1 with glyphosate, FIG. 9) was “about 90%” and the “effect on / toxicity to cyanobacteria” value (cyanobacteria; very low μM range) was “highly susceptible; also recorded: strongly affecting; also recorded: toxic”. For the same compound, the “concentration as low as which addition to the growth media induces cell death” value (cyanobacteria; viability experiments) was 0.5 µM, the “effect on cell growth” value (Bacillus subtilis) was “did not affect cell growth; also recorded: no (or very little) effect; also recorded: not affected” and the “effect on cell growth” value (E. coli) was “did not affect cell growth; also recorded: no (or very little) effect; also recorded: not affected”. For the same compound, the “sensitivity of yeast cultures” value (yeast) was “not sensitive”, the “stability in soil and aqueous environment” value [6] was “instability” and the “effect on growth / killing” value (Synechocystis PCC 6803; listed as meta tyrosine) was “effective”. For the same compound, the inhibition of algae (algae (chlamydomonas)) was “no inhibition effects”, the “effect on marine bacteria” value (marine bacteria) was “no obvious effects” and the effect on algae (algae (Chlorella)) was “no obvious effects”.

For `N[C@@H](Cc1cccc(F)c1)C(=O)O` [F, 3′ fluoro phenylalanine], the “appearance of treated seedlings (cotyledons, leaves)” value [4] was “white cotyledons and yellowish leaves”, the effect on seed-germination [4] was “strongly affected” and the “stability compared with the meta tyrosine molecule” value [7] was “more stable”. For the same compound, the “low concentration at which inhibition of growth rate is evident” value (Synechocystis PCC 6803; culture absorbance at OD=730) was 6.25 µM, the “bleaching of the cyanobacteria culture” value (Synechocystis PCC 6803; increasing concentrations, 0 to 50 μM, FIG. 3B after 150 hours) was “bleaching of the culture” and the “effect on growth / killing” value (Synechocystis PCC 6803) was “effective; also recorded: very strong effect”.
